Data set [1] concerns RPMI 8226 (multiple myeloma). Nature of the data set: Calcein AM cytotoxicity assay, RPMI 8226. The settings on record: RPMI 8226, 3-day Calcein-AM assay; read-out: Cytotoxic activity IC50. Type of data set: cell-based. The text has this: (§1) Because toxic compounds negatively influence metabolic processes of cells, many standard cytotoxicity assays are based on measurement of metabolisation rate of various artificial substrates. Resulting product is then quantified, for example, by means of spectrometry. The assays can be easily modified for use in 96-well plates. For evaluation of cytotoxicity of the […] of this invention, a microtiter assay based on quantification of metabolisation of Calcein AM was used. The assay is widely used in drug screening programs and in chemosensitivity testing. In live cells, Calcein AM is enzymatically hydrolysed and accumulation of the resulting calcein is manifested by green fluorescence. […]
(§2) Approximately 10,000 cells in 80 μL of medium were seeded into 96-well microtitre plates. […] The fluorescence of free calcein was then quantified using a Fluoroscan Ascent fluorometer (Microsystems), and the percentage of surviving cells in each well was calculated by dividing the OD obtained from each cell with exposed cells by the mean OD obtained from control wells×100%. […]

The subject of data set [2] is K562 (chronic myelogenous leukaemia). Nature of the data set: Calcein AM cytotoxicity assay, K562. The format is cell-based. As to conditions: K562, 3-day Calcein-AM assay; read-out: Cytotoxic activity IC50.
Text: as §1, §2

Data set [3] concerns HeLa (cervical carcinoma). Nature of the data set: Calcein AM cytotoxicity assay, HELA. The format is cell-based. The settings on record: 3-day Calcein-AM assay, read-out: Cytotoxic activity IC50.
Text: as §1, §2

For data set [4], the system named is CEM (T-lymphoblastic leukaemia). Briefly: Calcein AM cytotoxicity assay, CEM. The format is cell-based. The settings on record: 3-day Calcein-AM assay, read-out: Cytotoxic activity IC50.
Text: as §1, §2

In data set [5] the test system is G361 (malignant melanoma). Nature of the data set: Calcein AM cytotoxicity assay, G361. Type of data set: cell-based. As to conditions: G361, 3-day Calcein-AM assay; read-out: Cytotoxic activity IC50.
Text: as §1, §2

Data set [6] in a line: Calcein AM cytotoxicity assay, RPMI 8226. The settings on record: human, RPMI 8226 cells (multiple myeloma); RPMI 8226, 3-day Calcein-AM assay; read-out: Cytotoxic activity IC50. Type of data set: cell-based.
Text: as §1, §2

Data set [7] in a line: Calcein AM cytotoxicity assay, K562. Type of data set: cell-based. The settings on record: human, K562 cells (chronic myelogenous leukaemia), K562, 3-day Calcein-AM assay; read-out: Cytotoxic activity IC50.
Text: as §1, §2

Data set [8] can be described thus: Stability study by XRPD diffraction. Type of data set: physicochemical. As to conditions: 25° C., on light, after 30 days. How it is done:
X-ray powder diffraction studies were performed on a Bruker D8 Advance ECO diffractometer with Cu K-alpha radiation and SSD160 detector. Approximately 5 mg of sample was gently compressed on the XRPD sample holder. The sample was then loaded into a Bruker D8-Discover diffractometer in transmission mode and analyzed using the experimental conditions shown below: XRPD measurement conditions
Sample stability was tested at 25° C. for […] on light. […] XRPD of samples were taken after 30 days to investigate any solid form change (any difractogram/pattern change).

Data set [9] is described as follows: Calcein AM cytotoxicity assay, HELA. The format is cell-based. The settings on record: human, HeLa cells (cervical carcinoma), 3-day Calcein-AM assay, read-out: Cytotoxic activity IC50.
Text: as §1, §2

Data set [10] is described as follows: Calcein AM cytotoxicity assay, CEM. The settings on record: human, CEM cells (T-lymphoblastic leukaemia), 3-day Calcein-AM assay, read-out: Cytotoxic activity IC50. The format is cell-based.
Text: as §1, §2

The nature of data set [11]: Aqueous solubility (saturated solution, HPLC). The format is physicochemical. As to conditions: thermodynamic from solid, water, read-out: concentration of saturated solution in water (aqueous solubility). As for the experimental part:
Aqueous solubility was measured using the following protocol. Supersaturated solution of para-topolin mesylate salt in water was prepared. The solution was filtrated from visible undissolved particles of the salt to obtain saturated solution. Saturated solution was diluted 1:10 000 and measured using HPLC Alliance Waters 2690 with C18 Symmetry column with the diameter 2.1 mm and 150 mm length with a porosity of 5 μm. The sample was dissolved in the mobile phase (MeOH:HCOONH4-1:9). The sample was washed with a methanol gradient (10-90%, 35 min) at pH 4 and a flow rate of 0.3 ml/min. The absorbances of the components were detected in the UV region at 210-400 nm. The peak area was 2729231. Obtained peak area was compared to area peaks measured at certain concentration and the final concentration of saturated solution was determined.

Data set [12] in a line: Calcein AM cytotoxicity assay, G361. Type of data set: cell-based. The settings on record: human, G361 cells (malignant melanoma); G361, 3-day Calcein-AM assay; read-out: Cytotoxic activity IC50.
Text: as §1, §2

The values that follow come from patent US12378247B2, “Mesylate salt of para-topolin, compositions containing said salt and use thereof” (USTAV EXPERIMENTALNI BOTANIKY AV CR, V. V. I., priority 2020, dated 2025).

“And” between values parts separate entries of the source, which are not always exact repeats. Equal values may be shown once. Where a name gives a salt, the structure may show the parent alone.

In general, IC50 refers to the concentration that gives 50% inhibition. As to `Oc1ccc(CNc2ncnc3nc[nH]c23)cc1` [para-topolin, 6-(4-Hydroxybenzylamino) purine], the IC50 in data set [1] is above 167 µM; in data set [2] it was 140 µM; in data set [3] it was above 167 µM; in data set [4], above 167 µM; in data set [5], above 167 µM.

Take `Oc1ccc(CNc2ncnc3nc[nH]c23)cc1` [para-topolin mesylate, 6-(4-hydroxybenzylamino) purine (para-topolin) mesylate (methylsulphonate)]: the IC50 at 72 h in data set [6], in data set [7], in [9], in data set [10] and in data set [12] was above 167 µM in each case. Further, the results for the “Solid-state stability (structure, color, XRPD pattern change)” value in [8] (listed as crystalline para-topolin mesylate salt) and in data set [8] (listed as para-topolin mesylate crystalline salt) were “No structure nor color change” and “no structural pattern changes detected”, respectively. In addition, the Solubility in data set [11] was ~1.2e+06 µM and ~407000 µg/mL.
